Experiment [1] deals with T1, human alpha-thrombin (Homo sapiens, UniProt P00734).
T1 construct: commercial human alpha-thrombin (American Diagnostica); purchased American Diagnostica
In words: Thrombin-catalyzed hydrolysis of chromogenic substrate, Michaelis-Menten Ki. Type of experiment: biochemical. Particulars: 1 nM thrombin, 5-100 μM Spectozyme TH, 37° C., pH 7.4, Michaelis-Menten kinetics; for Ki: read-out: Thr Ki. The procedure: (§1) The compounds of the invention were tested for their ability to inhibit thrombin mediated hydrolysis.
Changes in absorbance at 405 nm were monitored (Softmax, Molecular Devices), upon addition of enzyme, both with and without inhibitor present at 37° C. over 30 minutes. […] Michaelis-Menton kinetics were applied to the initial reaction slopes using the program K Cat (Bio Metallics Inc.).

The target of the next experiment is T2, Bovine type 1 trypsin (Bos taurus, UniProt P00760).
T2 construct: purchased Sigma
T2 sequence (P00760 24-246): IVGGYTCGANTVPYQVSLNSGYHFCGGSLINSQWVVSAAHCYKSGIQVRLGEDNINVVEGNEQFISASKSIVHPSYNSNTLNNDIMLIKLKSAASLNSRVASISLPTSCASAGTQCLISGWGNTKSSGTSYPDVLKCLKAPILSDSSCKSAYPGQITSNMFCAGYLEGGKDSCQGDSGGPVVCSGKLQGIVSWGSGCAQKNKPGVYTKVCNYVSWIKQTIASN
The experiment is described as follows: Trypsin-catalyzed hydrolysis of chromogenic substrate, Ki. Type of experiment: biochemical. The conditions noted are these: 3.2 U/ml trypsin, 0.1-0.3 mM Spectrozyme TRY; read-out: Trp Ki. Here is the method:
as §1
Trypsin-catalyzed hydrolysis rates were measured using the same method as the thrombin procedure.

Experiment [2] has as its target T1, human alpha-thrombin. The experiment is described as follows: Slow, tight-binding kinetics with thrombin (Ki-slow). Type of experiment: biochemical. The conditions noted are these: 0.1 nM thrombin, 50 μM Spectozyme TH, 25° C., 4 h; read-out: Thr Ki -slow. Here is the method:
Ki-slow was determined by measuring enzyme-catalyzed hydrolysis rates. […] The compound numbers in the table correspond to the examples described hereinafter.

For another experiment, the target named is thrombin (Homo sapiens, UniProt P00734). Particulars: background section; cited from earlier work.

One may read the Ki as a measure of affinity in units of concentration, obtained from inhibition or displacement. On to “3S,6S,12R-N-[3-(12-BENZYL-2,5,11,14,20-PENTAOXO-23-THIA-4,10,13,19,24-PENTAAZATRICYCLO[19.2.1.3]-6,10-TETRACOSA-1(2H), 21-DIEN-3-YL)PROPYL]GUANIDINE [Compound 23]”, for which the Ki at human alpha-thrombin [1] turned out to be 1000 ± 400 nM; on Bovine type 1 trypsin, 66 ± 26 nM.

Regarding “5R,14R,18S,20aS-N-[3-(5-BENZYL-14-METHYI-4,7,13,16,17,20-HEXAOXOEICOSAHYDRO-3a,6,12,15,19-PENTAAZACYCLOPENTA-CYCLONONADECEN-18-YL)PROPYL]GUANIDINE TRIFLUOROACETIC ACID [Compound 21]”, the inhibitory constant (Ki) on human alpha-thrombin [1] came out at 92 ± 46 nM; at Bovine type 1 trypsin, 22 ± 14 nM; at human alpha-thrombin [2], 4.71 ± 1.51 nM.

Take “5R,15R,19S,21 AS-N-[3-(15-BENZHYDRYL-5-BENZYL-4,7,14,17,18,21-HEXAOXODOCOSAHYDRO-3a,6,13,16,20-PENTMZACYCLOPENTACYCLOEICOSEN-19-YL)PPROPYL]GUANIDINE TRIFLUOROACETIC ACID [Compound 19]”: the Ki was 5.3 ± 2.6 nM on human alpha-thrombin [1] and 2.5 ± 0.75 nM on Bovine type 1 trypsin.

For “5R, 2S, 18S-N-[3-(5-NAPTHALEN-2-YLMETHYL-4, 17, 16, 17, 20-PENTAOXOEICOSAHYDRO-3a, 6, 15, 19-TETRAAZACYCLOPENTACYCLONONADECEN-18-YL)PROPYL] GUANIDINE TRIFLUOROACETATE HYDRATE [Compound 6]”, the Ki at human alpha-thrombin [1] came to 21 ± 5 nM; on Bovine type 1 trypsin it was 6.8 ± 5 nM.

Consider “6R, 19S, 22S-N-[3-(6-BENZYL-5, 8, 17, 18, 21-PENTAOXODOCOSAHYDRO-4a, 7, 16, 20-TETRAAZABENCBZOCYCLONONADECEN-19-YL) PROPYL] GUANIDINE TRIFLUOROACETIC ACID HYDRATE [Compound 5]”, for which the Ki on human alpha-thrombin [1] is 90 ± 8.6 nM; at Bovine type 1 trypsin, 85 ± 29 nM.

Take `N=C(N)NCCCC1NC(=O)CCCCCNC(=O)C(Cc2ccccc2)NC(=O)C1=O` (centres unmarked) [Compound 18, N-[3-(3-BENZYL-2,5,6,9-TETRAOXO-1,4,8-TRIAZACYCLOTETRADEC-7-YL)PROPYL]GUANIDINE TRIFLUOROACETIC ACID]: the values for the inhibition constant (Ki) on human alpha-thrombin [1] and on Bovine type 1 trypsin were 3800 ± 200 nM and 310 ± 10 nM, respectively.

`N=C(N)NCCC[C@@H]1NC(=O)[C@@H]2CCCN2C(=O)[C@@H](NC=O)CNC(=O)/C=C/[C@H](Cc2ccc(O)cc2)NC(=O)[C@@H](Cc2ccccc2)NC(=O)C1=O` [CtA, Cyclotheonamide A, reference compound]: the inhibition constant Ki was 170 ± 80 nM at human alpha-thrombin [1], 23000 nM at Bovine type 1 trypsin, 4 ± 1.9 nM at human alpha-thrombin [2] and 1 to 2 nM at thrombin. Also, the “selectivity for thrombin over trypsin” value at thrombin was “does not favor thrombin”.

For `CN[C@H](Cc1ccccc1)C(=O)N1CCC[C@H]1C(=O)N[C@H](C=O)CCCN=C(N)N` [N-Me-PPAC, N-Me PPACK aldehyde, reference compound], the Ki on human alpha-thrombin [1] came to 10 nM.

With “[20aR-(20aR, 5R, 18S)]-N-[3-(5-PHENYLETHYL-17-HYDROXY-4, 7, 16, 20-TETRAOXOEICOSAHYDRO-3a, 6, 15, 19-TETRA-AZACYCLONONADECANE-18-YL) PROPYIL] GUANIDINE [Compound 22]”, the “Thr Ki” value on human alpha-thrombin [1] is listed as “no activity at 50 μM”.

The values above are taken from US5888971A, “Macrocyclic peptides useful in the treatment of thrombin related disorders” (Ortho Pharmaceutical Corporation, Inc., priority 1996, dated 1999).
